Experimental data taken from PMC4391943, “Novel Epigallocatechin-3-Gallate (EGCG) Derivative as a New Therapeutic Strategy for Reducing Neuropathic Pain after Chronic Constriction Nerve Injury in Mice” (PLoS ONE, 2015).

Legend:
NMDAR2B = test: Western blot of phospho-NMDAR2B and total NMDAR2B in the dorsal horn of the spinal cord; assay type: in vivo, mice; conditions: 50 mg/Kg, 56 dpi
Protocol: (§1) Mice (n = 5 per group) were sacrificed with sodium pentobarbital (90 mg/kg; i.p.) at 14 and 56 dpi and spinal cord segments distal to T12 vertebra were quickly removed and frozen. For total protein extraction, the dorsal horn of the spinal cord was homogenized in modified RIPA buffer (50 mM Tris–HCl pH 7.5, 1% Triton X-100, 0.5% sodium deoxycholate, 0.2% SDS, 100 mM NaCl, 1 mM EDTA, 2 mM PMSF, 1 μg/μL aprotinin, 1 μg/μL leupeptin and 2 mM sodium orthovanadate).
(§2) Western blotting was performed as previously described. The following primary antibodies were used: anti-FASN (1:1000, BD Bioscience, San Jose, CA); anti-TNF-α, anti-IL-1β, anti-IL-6 and anti-NFκB (all 1:500, Santa Cruz Biotechnology, Santa Cruz, CA); anti-phosphoNMDAR2B (Tyr1472) (1:2000, Affinity Bioreagents, Golden, CO) and anti-NMDAR2B (1:1000, Chemicon, Temecula, CA). Loading control was performed by reprobing the membranes with anti-actin (1:10,000; MP Biochemicals, Aurora, OH), anti-NeuN (1:1,000; Chemicon) or anti-N-cadherin (1:1000, BD Bioscience). Membranes were incubated with the corresponding horseradish peroxidase-conjugated antibody (1:2,000; Promega, Madison, WI). Immunoreactive bands were visualized using the Western Blotting Luminol Reagent and quantified by a computer-assisted densitometer (Gel-Pro Analyzer, version 4, Media Cybernetics).

[1] = Serum stability study, mouse serum; assay type: in vitro ADME; conditions: mouse (Balb/c) serum, 37°C, 75% serum, 0.5 mM compound; for half-life at 0.5 mM: mouse serum (75% final serum content), read-out: half-life (t1/2) (converted)
Protocol: Peptide stabilities were assayed in diluted serum as previously described. Human serum (Sigma, S7023) or mouse serum (Europa Bioproducts, EQSM-0100) were incubated at 37°C for 10 min. The assay was initiated upon the addition of the test compound solved in PBS to the serum (75% final serum content) for a final compound concentration of 0.5 mM. Then, 500 µL aliquots of the incubations were taken for the following time points: 0, 15, 30, 60, 120 and 240 min. The aliquots were mixed with 750 µL of cold acetonitrile (ACN) and incubated at 4°C for 10 min to precipitate serum proteins. The supernatant was collected for each sample after centrifugation at 39,000 g for 10 min and were immediately analyzed by high performance liquid chromatography-mass spectrometry (HPLC-MS).

FASN = test: Western blot of FASN protein levels in the dorsal horn of the spinal cord; assay type: in vivo, mice; conditions: 50 mg/Kg, 14 and 56 dpi
Protocol: as §1, §2

[2] = biological target: T1, fatty acid synthase (FASN) (Mus musculus, UniProt P19096); test: Fatty acid synthase activity in the dorsal horn of the spinal cord of treated CCI-mice (NADPH oxidation, A340); assay type: in vivo; conditions: 50 mg/Kg, n = 5; for FASN activity, % of vehicle group: 14 dpi
T1 construct: The dorsal horn of the spinal cord tissue was homogenized in lysis buffer; from tissue; host or cells: dorsal horn of the spinal cord of female Balb-c mice (CCI model)
T1 sequence (P19096 whole entry): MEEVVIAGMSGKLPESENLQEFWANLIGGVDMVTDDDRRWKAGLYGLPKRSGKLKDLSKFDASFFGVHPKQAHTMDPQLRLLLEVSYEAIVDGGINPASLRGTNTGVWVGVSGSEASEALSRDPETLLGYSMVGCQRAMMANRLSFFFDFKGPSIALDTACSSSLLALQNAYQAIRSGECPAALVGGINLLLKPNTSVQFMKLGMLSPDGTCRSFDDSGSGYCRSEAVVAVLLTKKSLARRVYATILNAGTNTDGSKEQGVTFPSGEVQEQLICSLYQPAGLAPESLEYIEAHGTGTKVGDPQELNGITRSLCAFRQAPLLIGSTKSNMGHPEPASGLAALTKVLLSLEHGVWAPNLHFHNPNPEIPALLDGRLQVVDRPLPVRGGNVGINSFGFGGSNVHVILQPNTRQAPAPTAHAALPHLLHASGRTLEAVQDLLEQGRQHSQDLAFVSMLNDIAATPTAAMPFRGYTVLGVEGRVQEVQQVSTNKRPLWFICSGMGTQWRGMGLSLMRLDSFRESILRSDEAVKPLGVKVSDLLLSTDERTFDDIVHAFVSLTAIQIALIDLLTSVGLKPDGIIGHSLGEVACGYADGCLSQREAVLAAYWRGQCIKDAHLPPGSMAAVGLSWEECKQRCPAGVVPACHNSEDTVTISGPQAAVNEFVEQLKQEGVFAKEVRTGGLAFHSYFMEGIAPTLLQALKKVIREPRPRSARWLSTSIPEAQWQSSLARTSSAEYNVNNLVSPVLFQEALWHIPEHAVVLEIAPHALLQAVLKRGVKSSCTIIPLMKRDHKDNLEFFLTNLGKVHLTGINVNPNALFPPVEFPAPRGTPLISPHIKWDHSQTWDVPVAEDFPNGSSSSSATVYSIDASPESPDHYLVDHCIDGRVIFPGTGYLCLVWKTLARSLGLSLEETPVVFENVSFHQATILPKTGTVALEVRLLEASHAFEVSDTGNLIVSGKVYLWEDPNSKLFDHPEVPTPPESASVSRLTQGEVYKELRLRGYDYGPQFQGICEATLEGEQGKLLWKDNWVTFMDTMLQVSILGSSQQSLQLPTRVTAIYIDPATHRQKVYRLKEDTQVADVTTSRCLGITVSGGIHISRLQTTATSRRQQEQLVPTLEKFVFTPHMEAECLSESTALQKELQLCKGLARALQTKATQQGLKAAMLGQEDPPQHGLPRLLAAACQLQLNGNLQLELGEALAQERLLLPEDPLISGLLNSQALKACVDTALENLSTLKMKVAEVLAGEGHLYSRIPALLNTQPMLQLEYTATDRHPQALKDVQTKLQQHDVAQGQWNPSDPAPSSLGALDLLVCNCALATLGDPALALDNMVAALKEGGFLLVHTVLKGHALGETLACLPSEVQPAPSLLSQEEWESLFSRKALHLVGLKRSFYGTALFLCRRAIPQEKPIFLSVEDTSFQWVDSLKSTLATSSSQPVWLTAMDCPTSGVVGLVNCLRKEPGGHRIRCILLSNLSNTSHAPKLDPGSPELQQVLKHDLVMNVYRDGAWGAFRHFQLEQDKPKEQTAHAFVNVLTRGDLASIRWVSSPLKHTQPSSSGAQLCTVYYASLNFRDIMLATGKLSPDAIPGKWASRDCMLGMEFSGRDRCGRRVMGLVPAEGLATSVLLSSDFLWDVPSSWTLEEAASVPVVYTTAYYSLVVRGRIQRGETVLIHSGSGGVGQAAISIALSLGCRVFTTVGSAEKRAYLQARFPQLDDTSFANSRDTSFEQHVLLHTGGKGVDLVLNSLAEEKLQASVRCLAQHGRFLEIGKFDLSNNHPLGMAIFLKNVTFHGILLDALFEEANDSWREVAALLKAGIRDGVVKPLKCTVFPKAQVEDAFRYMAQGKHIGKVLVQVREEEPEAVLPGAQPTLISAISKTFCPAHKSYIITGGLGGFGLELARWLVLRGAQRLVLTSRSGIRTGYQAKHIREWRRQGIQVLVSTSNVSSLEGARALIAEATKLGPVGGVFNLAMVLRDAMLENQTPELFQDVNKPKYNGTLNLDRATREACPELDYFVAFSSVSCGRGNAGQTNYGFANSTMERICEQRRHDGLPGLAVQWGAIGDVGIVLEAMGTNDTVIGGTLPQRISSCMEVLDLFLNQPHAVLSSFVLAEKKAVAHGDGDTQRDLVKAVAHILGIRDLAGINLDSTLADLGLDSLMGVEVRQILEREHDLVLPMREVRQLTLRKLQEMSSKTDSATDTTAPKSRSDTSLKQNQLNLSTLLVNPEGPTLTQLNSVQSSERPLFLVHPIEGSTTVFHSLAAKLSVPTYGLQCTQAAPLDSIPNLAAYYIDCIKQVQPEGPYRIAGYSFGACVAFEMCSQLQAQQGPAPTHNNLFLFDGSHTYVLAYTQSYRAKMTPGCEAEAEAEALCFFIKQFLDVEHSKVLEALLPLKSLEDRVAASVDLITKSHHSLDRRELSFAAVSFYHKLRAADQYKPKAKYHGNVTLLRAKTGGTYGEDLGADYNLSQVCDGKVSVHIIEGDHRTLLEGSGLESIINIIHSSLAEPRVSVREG
Protocol: For dose response studies, EGCG and the two synthetic EGCG derivatives compound 23 and compound 30 were administered by intra-peritoneal injection at 10, 30, 50 and 100 mg/Kg (n = 5 mice/compound/dose), 30 minutes after the CCI. To analyze the time-dependent effect EGCG and the two synthetic EGCG derivatives compound 23 and compound 30 were administered by intra-peritoneal injection at 50 mg/Kg (n = 15 mice/compound), 30 minutes after the CCI. Another set of animals were used to study the effect of 50 mg/kg of EGCG and the two synthetic EGCG derivatives compound 23 and compound 30 at 14 dpi (n = 15 mice/compound). In all cases, the administration was daily repeated during the first week. All compounds were dissolved in DMSO/saline solution (1:9; v/v), used as vehicle group.
The fatty acid synthase (FASN) activity was assayed in particle-free supernatants by recording spectrophotometrically at 37°C (Lambda Bio 20, Perkin Elmer Boston, MA, USA, EUA) and measuring the decrease of A340 nm due to oxidation of NADPH as previously described. Briefly, mice (n = 5 per group) were sacrificed with sodium pentobarbital (90 mg/kg; i.p.) at 14 and 56 dpi. Spinal cord segments distal to T12 vertebra were quickly removed and snap frozen. The dorsal horn of the spinal cord tissue was homogenized in lysis buffer (250mM sucrose, 20 mM HEPES pH 7.6, 2 mM MgCl2, 1 mM DTT, 1 mM EDTA, 50 mM NaF, 2 mM phenylmethylsulfonyl fluoride (PMSF), 1 μg/μL aprotinin, 1 μg/μL leupeptin, 2 mM sodium orthovanadate). Homogenized samples were centrifuged at 3,500 x g for 10 minutes, and then supernatant was collected and centrifuged at 100,000 x g for 30 minutes to obtain supernatants particle-free. The protein concentrations were determined using the Dc protein assay kit. A 90 μg amount of protein was used for the reaction. A pre-incubation during 15 minutes at 37°C in 0.2 M of potassium phosphate buffer, pH = 7.0 was kept for temperature equilibration. Then, samples were added to the reaction mixture (200 mM potassium phosphate buffer, pH 7.0; 1 mM EDTA; 1 mM dithiothreitol, 30 μM Acetyl-CoA and 0.24 mM NADPH) and then were monitored at 340 nm for 3 minutes to measure background NADPH oxidation. After the addition of 50 μM of malonyl-CoA, the reaction was assayed for 10 minutes to determine FASN-dependent oxidation of NADPH. Rates were corrected with the background rate of NADPH oxidation.

TNF-α, IL-1β and IL-6 = test: Quantitative RT-PCR of cytokine mRNA in the dorsal horn of the spinal cord; assay type: in vivo, mice; conditions: 50 mg/Kg
Protocol: Total RNA was isolated from dorsal horn of spinal cord segments distal to T12 vertebra of all groups (n = 5 mice per group) using the Total RNA isolation nucleospin RNA II Kit. Purified RNA (600 ng) was reverse transcribed using the StrataScript First Strand cDNA Synthesis System. The cDNA synthesis was performed at 42°C for 60 minutes according to the manufacturer’s instructions. The cDNA was then analyzed by quantitative RT-PCR using the following TaqMan Gene Expression Assays (Applied Biosystems, Foster City, CA): 18S, HS99999901_s1; TNF-α, Mm00443258_m1; IL-1β, Mm00434228_m1; IL-6, Mm00446190_m1. The RT-PCR was performed as previously described. Analysis and quantification was obtained with the comparative quantification analysis program of the Mx-Pro Q-PCR Analysis software version 3.0 (Strategene).

Row | Compound | phospho-levels of NMDAR2B compared to vehicle group (NMDAR2B) | half-life at 0.5 mM [1] [min] | effect on FASN protein levels (FASN) | FASN activity, % of vehicle group [2] | decrease in mRNA levels of TNF-α, IL-1β and IL-6 compared to vehicle (TNF-α, IL-1β and IL-6; 14 dpi) | reduction of FASN activity ([2]; 56 dpi) | decrease in mRNA levels of TNF-α, IL-1β and IL-6 compared to vehicle (TNF-α, IL-1β and IL-6; 56 dpi) | mRNA levels of IL-6 compared to vehicle (TNF-α, IL-1β and IL-6; 56 dpi) | half-life (t1/2) [1]
1 | O=C(Oc1cccc2c(OC(=O)c3cc(O)c(O)c(O)c3)cccc12)c1cc(O)c(O)c(O)c1 [Compound 23, 1,5-Bis [(3,4,5-trihydroxybenzoyl)oxy] naphthalene] | did not induce variations | 18 | no effect | No differences | no differences | – | – | – | –
2 | O=C(Oc1ccc(-c2ccc(OC(=O)c3cc(O)c(O)c(O)c3)cc2)cc1)c1cc(O)c(O)c(O)c1 [Compound 30, 4,4′-Bis [(3,4,5-trihydroxybenzoyl)oxy]-1,1′-biphenyl] | specific decrease | 24 | no effect | 61±8 % of vehicle group | ~3 fold | 32±9 % of vehicle | not observed | slight decrease | –
3 | epigallocatechin-3-gallate [EGCG] | did not induce variations | – | no effect | 57±8 % of vehicle group | ~3 fold | – | not observed | – | < 0,1 h
